Experimental findings from patent US20080234262A1 (Wyeth, priority 2007, published 2008) are described below.

By IC50 is commonly meant the midpoint of a concentration-inhibition curve.

One experiment has as its target PI3K (Homo sapiens, UniProt P42336). As to the kind of experiment: Fluorescence polarization assay for PI3K.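 Note: PI3K kinase reaction on PIP2 with ATP, 30-60 min, product sensed by GST-GRP with red probe in fluorescence polarization (mP), controls without enzyme and at zero time.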 The format is biochemical. The settings on record: PI3Kα; read-out: PI3Kα IC50.
Another experiment relates to prostate line LNCap. As to the kind of experiment: In vitro cell culture growth assay (MTS), LNCap. The format is cell-based, human. The settings on record: LNCap cells, three days after drug treatment.
The test system of another experiment is breast line MDA468. The experiment in a line: In vitro cell culture growth assay (MTS), MDA468. The class given is cell-based, human. The conditions noted are these: MDA468 cells, three days after drug treatment. In a few lines: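 Cells were plated and, one day later, exposed to inhibitors for three days; viable cell density was then measured by metabolic conversion of MTS dye, read as absorbance at 490 nm. Growth is expressed as percent of vehicle-treated control cells on the same plate.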

PI3K, sequence (P42336 whole entry): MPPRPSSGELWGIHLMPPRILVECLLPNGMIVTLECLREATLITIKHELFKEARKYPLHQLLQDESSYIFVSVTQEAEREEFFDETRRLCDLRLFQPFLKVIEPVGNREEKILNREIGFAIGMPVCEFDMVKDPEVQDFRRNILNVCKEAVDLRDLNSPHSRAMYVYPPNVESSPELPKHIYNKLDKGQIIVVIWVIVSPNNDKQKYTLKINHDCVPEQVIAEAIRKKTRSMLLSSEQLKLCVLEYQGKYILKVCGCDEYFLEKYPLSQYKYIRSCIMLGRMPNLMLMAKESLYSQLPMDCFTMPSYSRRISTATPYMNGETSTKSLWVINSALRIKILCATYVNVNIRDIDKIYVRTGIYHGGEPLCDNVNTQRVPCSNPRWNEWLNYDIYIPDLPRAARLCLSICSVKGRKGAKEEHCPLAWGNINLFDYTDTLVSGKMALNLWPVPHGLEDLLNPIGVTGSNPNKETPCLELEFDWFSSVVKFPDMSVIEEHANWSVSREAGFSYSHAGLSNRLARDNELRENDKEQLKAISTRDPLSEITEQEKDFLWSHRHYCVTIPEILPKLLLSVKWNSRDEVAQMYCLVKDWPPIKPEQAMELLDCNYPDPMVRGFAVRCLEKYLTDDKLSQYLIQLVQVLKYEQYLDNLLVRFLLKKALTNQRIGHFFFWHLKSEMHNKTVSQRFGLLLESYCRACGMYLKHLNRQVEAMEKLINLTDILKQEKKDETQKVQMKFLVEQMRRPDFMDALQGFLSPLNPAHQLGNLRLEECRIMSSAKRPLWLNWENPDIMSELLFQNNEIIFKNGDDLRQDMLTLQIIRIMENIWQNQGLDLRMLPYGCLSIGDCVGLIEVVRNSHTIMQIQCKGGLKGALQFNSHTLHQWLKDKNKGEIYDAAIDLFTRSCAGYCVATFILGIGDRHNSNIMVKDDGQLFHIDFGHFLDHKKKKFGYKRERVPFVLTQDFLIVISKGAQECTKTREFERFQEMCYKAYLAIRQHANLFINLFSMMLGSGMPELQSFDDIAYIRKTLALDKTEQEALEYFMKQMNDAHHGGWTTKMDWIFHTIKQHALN
PI3K, sequence (P27986 whole entry partner): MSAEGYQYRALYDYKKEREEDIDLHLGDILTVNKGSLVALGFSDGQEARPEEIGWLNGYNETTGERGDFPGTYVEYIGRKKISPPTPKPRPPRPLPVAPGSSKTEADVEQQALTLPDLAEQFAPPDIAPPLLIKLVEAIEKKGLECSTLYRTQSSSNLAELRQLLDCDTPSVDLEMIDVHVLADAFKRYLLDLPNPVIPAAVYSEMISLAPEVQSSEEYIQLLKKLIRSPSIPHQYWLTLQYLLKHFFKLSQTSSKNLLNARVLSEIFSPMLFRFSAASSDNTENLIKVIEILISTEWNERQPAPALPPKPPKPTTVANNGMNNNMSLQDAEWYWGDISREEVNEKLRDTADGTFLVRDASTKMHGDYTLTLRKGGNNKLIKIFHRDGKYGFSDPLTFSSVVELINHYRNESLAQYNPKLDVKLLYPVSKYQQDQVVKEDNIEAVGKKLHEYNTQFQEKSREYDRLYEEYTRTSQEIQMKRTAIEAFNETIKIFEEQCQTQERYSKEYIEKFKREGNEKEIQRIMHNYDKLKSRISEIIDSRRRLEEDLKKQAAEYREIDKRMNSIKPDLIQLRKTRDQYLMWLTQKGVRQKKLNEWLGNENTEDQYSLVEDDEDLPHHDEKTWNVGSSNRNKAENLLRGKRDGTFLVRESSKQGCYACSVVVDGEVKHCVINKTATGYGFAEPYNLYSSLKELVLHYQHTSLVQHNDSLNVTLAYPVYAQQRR

For `CNC(=O)Nc1ccc(-c2nc(N3CCOCC3)c3cnn(C4CCN(C(=O)NC)CC4)c3n2)cc1` [Compound 722, N-methyl-4-(6-{4-[(methylcarbamoyl)amino]phenyl}-4-morpholin-4-yl-1H-pyrazolo[3,4-d]pyrimidin-1-yl)piperidine-1-carboxamide], the IC50 on PI3K stood at 0.148 µM; in the experiment on prostate line LNCap, 2.2 µM; with breast line MDA468, 1.8 µM.
For `CNC(=O)Nc1ccc(-c2nc(N3CCOCC3)c3cnn(C4CCN(C(=O)c5cccc(Cl)c5)CC4)c3n2)cc1` [Example 358, 1-(4-{1-[1-(3-chlorobenzoyl)piperidin-4-yl]-4-morpholin-4-yl-1H-pyrazolo[3,4-d]pyrimidin-6-yl}phenyl)-3-methylurea], the 50% inhibitory concentration (IC50) was 0.053 µM on PI3K; 0.027 µM in the experiment with prostate line LNCap (Homo sapiens, LNCaP, 72 h); 0.1 µM in the experiment with breast line MDA468 (Homo sapiens, 72 h).
Taken in the same sequence, the figures for `Nc1cccc(-c2nc(N3CCOCC3)c3cnn(C4CCN(C(=O)c5cccnc5)CC4)c3n2)n1` [Compound 436, 6-{4-morpholin-4-yl-1-[1-(pyridin-3-ylcarbonyl)piperidin-4-yl]-1H-pyrazolo[3,4-d]pyrimidin-6-yl}pyridin-2-amine] were 4.99 µM, 9.8 µM and 25 µM.
On to `CCSC(=O)N1CCC(n2ncc3c(N4CCOCC4)nc(-c4ccc(NC(=O)OC)cc4)nc32)CC1` [Compound 807, S-ethyl 4-(6-{4-[(methoxycarbonyl)amino]phenyl}-4-morpholin-4-yl-1H-pyrazolo[3,4-d]pyrimidin-1-yl)piperidine-1-carbothioate], for which the IC50 at PI3K was 4.45 µM; in the experiment on prostate line LNCap (Homo sapiens, LNCaP, 72 h), 1.4 µM; with breast line MDA468 (Homo sapiens, 72 h), 8 µM.
As for `COC(=O)N1CCC(n2ncc3c(N4CCOCC4)nc(-c4ccc(NC(=O)OCCN5CCCC5)cc4)nc32)CC1` [Compound 905, methyl 4-[4-morpholin-4-yl-6-(4-{[(2-pyrrolidin-1-ylethoxy)carbonyl]amino}phenyl)-1H-pyrazolo[3,4-d]pyrimidin-1-yl]piperidine-1-carboxylate], the IC50 on PI3K came out at 0.25 µM; with prostate line LNCap (Homo sapiens, LNCaP, 72 h), 1.4 µM; with breast line MDA468 (Homo sapiens, 72 h), 4.5 µM.
In the same order, the values of `CCNC(=O)Nc1ccc(-c2nc(N3CCOCC3)c3cnn(C4CCN(CCCCO)CC4)c3n2)cc1` [Compound 745, 1-ethyl-3-(4-{1-[1-(4-hydroxybutyl)piperidin-4-yl]-4-morpholin-4-yl-1H-pyrazolo[3,4-d]pyrimidin-6-yl}phenyl)urea] are 0.55 µM, 1.3 µM and 2.9 µM.
In the case of `CNC(=O)Nc1ccc(-c2nc(N3CCOCC3)c3cnn(C4CCN(C(=O)N5CCN(C)CC5)CC4)c3n2)cc1` [Compound 578, 1-methyl-3-[4-(1-{1-[(4-methylpiperazin-1-yl)carbonyl]piperidin-4-yl}-4-morpholin-4-yl-1H-pyrazolo[3,4-d]pyrimidin-6-yl)phenyl]urea], the IC50 at PI3K stood at 0.071 µM; in the experiment with prostate line LNCap (Homo sapiens, LNCaP, 72 h) it was 0.4 µM; in the experiment on breast line MDA468 (Homo sapiens, 72 h), 0.7 µM.
Taken in the same sequence, the figures for `CC(C)OC(=O)N1CCC(n2ncc3c(N4CCOCC4)nc(-c4ccc(NC(=O)Nc5ccccn5)cc4)nc32)CC1` [Compound 837, isopropyl 4-(4-morpholin-4-yl-6-{4-[(pyridin-2-ylcarbamoyl)amino]phenyl}-1H-pyrazolo[3,4-d]pyrimidin-1-yl)piperidine-1-carboxylate] were 12 µM, 2.5 µM and 4.6 µM.
In the same order, the values of `COC(=O)Nc1ccc(-c2nc(N3CCOCC3)c3cnn(C4CCN(Cc5cccnc5OC)CC4)c3n2)cc1` [Compound 452, methyl [4-(1-{1-[(2-methoxypyridin-3-yl)methyl]piperidin-4-yl}-4-morpholin-4-yl-1H-pyrazolo[3,4-d]pyrimidin-6-yl)phenyl]carbamate] are 1.83 µM, 0.6 µM and 2.2 µM.
Taken in the same sequence, the figures for `COC(=O)Nc1ccc(-c2nc(N3CCOCC3)c3cnn(C4CCN(C(=O)c5ccccn5)CC4)c3n2)cc1` [Example 441, methyl (4-{4-morpholin-4-yl-1-[1-(pyridin-2-ylcarbonyl)piperidin-4-yl]-1H-pyrazolo[3,4-d]pyrimidin-6-yl}phenyl)carbamate] were 1.92 µM, 0.2 µM and 0.6 µM.
With `COC(=O)Nc1ccc(-c2nc(N3CCOCC3)c3cnn(C4CCN(C(=O)c5ccccc5Cl)CC4)c3n2)cc1` [Example 444, methyl (4-{1-[1-(2-chlorobenzoyl)piperidin-4-yl]-4-morpholin-4-yl-1H-pyrazolo[3,4-d]pyrimidin-6-yl}phenyl)carbamate], the IC50 turned out to be 0.778 µM at PI3K; 0.25 µM with prostate line LNCap (Homo sapiens, LNCaP, 72 h); 0.8 µM in the experiment with breast line MDA468 (Homo sapiens, 72 h).
Taken in the same sequence, the figures for `CC(C)C(=O)N1CCC(n2ncc3c(N4CCOCC4)nc(-c4ccc(NC(=O)Nc5ccncc5)cc4)nc32)CC1` [Compound 829, 1-{4-[1-(1-isobutyrylpiperidin-4-yl)-4-morpholin-4-yl-1H-pyrazolo[3,4-d]pyrimidin-6-yl]phenyl}-3-pyridin-4-ylurea] were 0.038 µM, 0.025 µM and 0.029 µM.
In the same order, the values of `c1ccc(-n2ncc3c(N4CCOCC4)nc(-c4ccc(N5CCOCC5)nc4)nc32)cc1` [Compound 131] are 1.1 µM, 60 µM and 60 µM.
Regarding `O=C(Nc1ccc(-c2nc(N3CCOCC3)c3cnn(C4CCNCC4)c3n2)cc1)NC1CC1` [Compound 776, 1-cyclopropyl-3-[4-(4-morpholin-4-yl-1-piperidin-4-yl-1H-pyrazolo[3,4-d]pyrimidin-6-yl)phenyl]urea], the half-maximal inhibitory concentration (IC50) is 0.442 µM at PI3K; 1.1 µM in the experiment on prostate line LNCap (Homo sapiens, LNCaP, 72 h); 1.1 µM in the experiment on breast line MDA468 (Homo sapiens, 72 h).
`NNC(=O)Nc1ccc(-c2nc(N3CCOCC3)c3cnn(C4CCN(Cc5ccccc5)CC4)c3n2)cc1` [Compound 554, N-{4-[1-(1-benzylpiperidin-4-yl)-4-morpholin-4-yl-1H-pyrazolo[3,4-d]pyrimidin-6-yl]phenyl}hydrazinecarboxamide]: the IC50 at PI3K stood at 0.155 µM; in the experiment on prostate line LNCap (Homo sapiens, LNCaP, 72 h), 0.9 µM; in the experiment on breast line MDA468 (Homo sapiens, 72 h), 7.5 µM.
Taken in the same sequence, the figures for `CCNC(=O)Nc1ccc(-c2nc(N3CCOCC3)c3cnn(C4CCNCC4)c3n2)cc1` [Compound 773] were 0.306 µM, 0.62 µM and 0.39 µM.
As for `NNC(=O)Nc1ccc(-c2nc(N3CCOCC3)c3cnn(-c4ccccc4)c3n2)cc1` [Compound 538, N-[4-(4-morpholin-4-yl-1-phenyl-1H-pyrazolo[3,4-d]pyrimidin-6-yl)phenyl]hydrazinecarboxamide], the half-maximal inhibitory concentration (IC50) at PI3K stood at 0.17 µM; in the experiment on prostate line LNCap (Homo sapiens, LNCaP, 72 h) it was 5.2 µM; in the experiment with breast line MDA468 (Homo sapiens, 72 h), 8 µM.
`O=C(Nc1ccccc1)Nc1ccc(-c2nc(N3CCOCC3)c3cnn(C4CCN(C(=O)c5ccccc5)CC4)c3n2)cc1` [Example 378, 1-{4-[1-(1-benzoylpiperidin-4-yl)-4-morpholin-4-yl-1H-pyrazolo[3,4-d]pyrimidin-6-yl]phenyl}-3-phenylurea]: the IC50 at PI3K is 0.016 µM; in the experiment with prostate line LNCap (Homo sapiens, LNCaP, 72 h) it was 0.027 µM; in the experiment with breast line MDA468 (Homo sapiens, 72 h), 0.1 µM.
In the same order, the values of `O=C(Nc1ccncc1)Nc1ccc(-c2nc(N3CCOCC3)c3cnn(C4CCN(C(=O)c5ccccc5)CC4)c3n2)cc1` [Example 384, 1-{4-[1-(1-benzoylpiperidin-4-yl)-4-morpholin-4-yl-1H-pyrazolo[3,4-d]pyrimidin-6-yl]phenyl}-3-pyridin-4-ylurea] are 0.019 µM, 0.042 µM and 0.1 µM.
Taken in the same sequence, the figures for `COc1ccc(NC2CCC(n3ncc4c(N5CCOCC5)nc(-c5ccc6[nH]ccc6c5)nc43)CC2)cc1` (stereo not drawn) [Compound 153] were 0.46 µM, 2 µM and 6.5 µM.
Taken in the same sequence, the figures for `CNCCNC(=O)Nc1ccc(-c2nc(N3CCOCC3)c3cnn(C4CCN(Cc5cccnc5)CC4)c3n2)cc1` [Compound 589, 1-[2-(methylamino)ethyl]-3-(4-{4-morpholin-4-yl-1-[1-(pyridin-3-ylmethyl)piperidin-4-yl]-1H-pyrazolo[3,4-d]pyrimidin-6-yl}phenyl)urea] were 0.029 µM, 1.2 µM and 1.1 µM.
Take `c1ccc(N2CCC(n3ncc4c(N5CCOCC5)nc(-c5ccc6[nH]ccc6c5)nc43)CC2)nc1` [Compound 217, 6-(1H-indol-5-yl)-4-morpholin-4-yl-1-(1-pyridin-2-ylpiperidin-4-yl)-1H-pyrazolo[3,4-d]pyrimidine]: the 50% inhibitory concentration (IC50) at PI3K stood at 1.4 µM; with prostate line LNCap (Homo sapiens, LNCaP, 72 h), 1.2 µM; with breast line MDA468 (Homo sapiens, 72 h), 1.9 µM.
Regarding `Cc1ccc(CN2CCC(n3ncc4c(N5CCOCC5)nc(-c5cccc(O)c5)nc43)CC2)s1` [Example 18], the IC50 on PI3K was 0.022 µM; in the experiment on prostate line LNCap (Homo sapiens, LNCaP, 72 h), 0.22 µM; with breast line MDA468 (Homo sapiens, 72 h), 1.3 µM.
As for `CN(C)CC(=O)N1CCC(n2ncc3c(N4CCOCC4)nc(-c4ccc5[nH]ccc5c4)nc32)CC1` [Compound 94], the half-maximal inhibitory concentration (IC50) at PI3K came out at 1.46 µM; with prostate line LNCap (Homo sapiens, LNCaP, 72 h), 1.9 µM; with breast line MDA468 (Homo sapiens, 72 h), 4.2 µM.
For the compound `Oc1cccc(CN2CCC(n3ncc4c(N5CCOCC5)nc(-c5ccc6[nH]ccc6c5)nc43)CC2)c1` [Example 76], the half-maximal inhibitory concentration (IC50) at PI3K worked out at 0.522 µM; in the experiment with prostate line LNCap (Homo sapiens, LNCaP, 72 h), 0.9 µM; with breast line MDA468 (Homo sapiens, 72 h), 1 µM.
Taken in the same sequence, the figures for `O=C(c1ccc(F)nc1)N1CCC(n2ncc3c(N4CCOCC4)nc(-c4ccc5[nH]ccc5c4)nc32)CC1` [Compound 201] were 2.02 µM, 0.74 µM and 3 µM.
As for `c1cc2cc(-c3nc(N4CCOCC4)c4cnn(C5CCC6(CC5)OCCO6)c4n3)ccc2[nH]1` [Compound 142], the IC50 at PI3K was found to be 1.49 µM; in the experiment on prostate line LNCap (Homo sapiens, LNCaP, 72 h), 0.32 µM; in the experiment with breast line MDA468 (Homo sapiens, 72 h), 2.2 µM.
